Laboratory results from US11286263B2, “Macrocyclic fluorine substituted indole derivatives” (The Broad Institute, Inc., priority 2017, dated 2022).
Several values for one entry are separate records, joined by “and”; a condition that tells them apart may be missing. Identical values can stand only once. Like-named read-outs stand apart in the source and are kept apart here.

Tests used:
[1] = amine bond, Cs2CO3
MCL-1 = MCL-1 (Homo sapiens (Human), UniProt Q07820, K194A/K197A/R201A); test: Protein-protein interaction assay MCL-1/Noxa BH3 peptide (MCL-1 assay), TR-FRET; format: binding; conditions: MCL-1/Noxa BH3 peptide TR-FRET; median
Procedure: Protein-Protein Interaction Assay: MCL-1/Noxa BH3 Peptide (MCL-1 Assay)
The dose-dependent inhibition by the compounds described in this invention of the interaction between MCL-1 and the BH3 domain of Noxa (both human) was determined using a steady state binding competition assay with time-resolved fluorescence energy transfer (TR-FRET) readout. For that purpose MCL-1 (amino acids 173-321, N-terminal fused to Maltose Binding Protein (MBP) SEQ ID 1)) and a synthetic Noxa BH3-derived peptide of sequence Biotin-PEG2-PEG2-PAELEVE-Nva-ATQLRRFGDKLNFRQKLL-amide (SEQ ID 2) served as protein receptor and tracer ligand respectively. The MBP-MCL-1 was purchased from Beryllium (Bedford, Mass., USA). The expression and purification of this protein construct has been described elsewhere (DOI:10.1371/journal.pone.0125010). The Noxa BH3-derived peptide can be obtained from e.g. Biosyntan (Berlin, Germany).
In the assay 11 different concentrations of each compound (0.1 nM, 0.33 nM, 1.1 nM, 3.8 nM, 13 nM, 44 nM, 0.15 μM, 0.51 μM, 1.7 μM, 5.9 μM and 20 μM) were typically measured as duplicates in the same microtiter plate. For that, 100-fold concentrated DMSO solutions were prepared by serial dilutions (1:3.4) of a 2 mM stock solution in a clear, 384-well microtiter plate (Greiner Bio-One, Frickenhausen, Germany). From there, 50 nl were transferred in a dark test plate (Greiner Bio-One, Frickenhausen, Germany). The assay was initiated by addition of 2 μl of a 2,5-fold concentrated MBP-MCL-1 solution (usually for a 1 nM end concentration in 5 μl reaction volume) in aqueous assay buffer [50 mM Tris/HCl pH 7, 100 mM sodium chloride (NaCl), 50 mM potassium fluoride (KF), 0.005% Tween-20, 2 mM DTT, 0.1% bovine gamma globulin (BGG)] to the compounds in the assay plate. This was followed by a 10-minute incubation step at 22° C. for pre-equilibration of the putative complex between MBP-MCL-1 and the compounds. After that, 3 μl of a 1.67-fold concentrated solution (in assay buffer) consisting of Noxa BH3-derived peptide (1 nM end concentration) and TR-FRET detection reagents [1.67 nM anti-MBP-Eu cryptate and 1.67 nM streptavidin-XL665 (both from Cisbio Bioassays, Codolet, France)], were added.
The mixture was incubated in the dark for one hour at 22° C. and then overnight at 4° C. The formation of MCL-1/Noxa complexes was determined by measuring the resonance energy transfer of the anti-MBP-Eu-cryptate antibody to the streptavidin-XL665 present in the reaction. For that purpose, the fluorescence emission at 620 nm and 665 nm after excitation at 330-350 nm was measured in a TR-FRET measuring instrument, for instance a Rubystar or a Pherastar (both from BMG Lab Technologies, Offenburg, Germany) or a Viewlux (Perkin-Elmer). The ratio of the emission at 665 nm and at 622 nm was used as indicator of the amount of MCL-1/NOXA complexes present.
The resulting data (ratio) were normalized, taking 0% inhibition as the mean value of control measurements (usually 32 data points) where all reagents were included. In this case 50 nl DMSO were used instead of compounds. A 100% inhibition corresponded to the mean value of control measurements (usually 32 data points) where all reagents except MCL-1 were included. IC50 values were determined by regression analysis based on a 4 parameter equation (minimum, maximum, IC50, Hill; Y=Max+(Min−Max)/(1+(X/IC50)^Hill) using the Screener Software (Genedata).

SUDHL5 [2] = test: Induction of caspase-3/7 activity, SUDHL5 (Assay 4); format: cell-based; conditions: Homo sapiens, SU-DHL-5, 3 h, SUDHL5 cells, Caspase-Glo 3/7, median
Procedure: (§1) Induction of Caspase-3/7 Activity upon Treatment of Cells with Selected Compounds
(§2) The BH3-domain of MCL-1 sequesters pro-apoptotic proteins, thereby inhibiting apoptosis. In contrast, MCL-1 inhibitors are expected to antagonize this effect leading to an increase in apoptosis, which can be determined by measuring the activity of caspase-3/7.
(§3) The activity of caspase-3/7 was determined in DLBCL (Diffuse large B-cell lymphoma) cell lines (SUDHL5 and SUDHL10) upon treatment with different compounds, using the Caspase-Glo® 3/7 reagent from Promega (G8092).
(§4) Rim wells were excluded. The cells were incubated for 3 h hours in a humidified incubator at 37° C.
(§5) For the evaluation of the results, the background measured with “medium-only” was subtracted from all other values. […] The Bella DRC Master Sheet was used to calculate EC50s, with fixed C0=1 and Cl=plateau/max induction for the reference compound.

SUDHL10 [3] = test: Induction of caspase-3/7 activity, SUDHL10 (Assay 4); format: cell-based; conditions: SUDHL10 cells
Procedure: as §1, §2, §3, §4, §5

SUDHL5 [4] = test: Antiproliferation assay SUDHL5 (Assay 7); format: cell-based; conditions: SUDHL5 cells, CellTiter-Glo, median, read-out: IC50 Antiproli SUDHL5 [M] (median)
Procedure: (§6) Assessment of the Anti-Proliferative Effect of Compounds in Different Cell Lines
(§7) The impact of compounds on the proliferation of different cell lines was assessed using the CellTiter-Glo® Luminescent Cell Viability reagent from Promega (G7573).
(§8) In parallel, cells were plated in a reference (day 0) plate for time zero determination.
(§9) Rim wells were excluded. The cells were incubated for 72 h hours in a humidified incubator at 37° C. The day 0 plate was measured by adding 30 μL/well of CTG solution (CellTiter-Glo® Luminescent Cell Viability reagent, Promega G7573) to time zero wells in the reference plate followed by a 10 minutes incubation and luminescence reading at 0.1 ms. using the PHERAstar FS microplate reader (BMG Labtech).
(§10) After 72 h incubation, the treated plates were measured in the same way as the day 0 plate mentioned above.

MV-4-11 = test: Antiproliferation assay MV-4-11 (Assay 7); format: cell-based; conditions: MV-4-11 cells, CellTiter-Glo, single determinations, read-out: IC50 Antiproli MV-4-11
Procedure: as §6, §7, §8, §9, §10

AMO-1 = test: Antiproliferation assay AMO-1 (Assay 7); format: cell-based; conditions: AMO-1 cells, CellTiter-Glo, single determinations, read-out: IC50 Antiproli AMO-1
Procedure: as §6, §7, §8, §9, §10

SK-BR-3 = test: Antiproliferation assay SK-BR-3 (Assay 7); format: cell-based; conditions: Homo sapiens, SK-BR-3, 72 h, SK-BR-3 cells, CellTiter-Glo, single determinations, read-out: IC50 Antiproli SK-BR-3
Procedure: as §6, §7, §8, §9, §10

A2780 = test: Antiproliferation assay A2780 (Assay 7); format: cell-based; conditions: A2780 cells, CellTiter-Glo, single determinations, read-out: IC50 Antiproli A2780
Procedure: as §6, §7, §8, §9, §10

SUDHL5 [5] = test: Induction of cytotoxicity, SUDHL5 (Assay 6); conditions: read-out: IC50 Cytotox SUDHL5 [M] (median), SUDHL5 cells, 5 h, CellTiter-Glo
SUDHL10 [6] = test: Induction of cytotoxicity, SUDHL10 (Assay 6); conditions: read-out: IC50 Cytotox SUDHL10 [M] (median), SUDHL10 cells, 5 h, CellTiter-Glo
SUDHL10 [7] = test: Antiproliferation assay SUDHL10 (Assay 7); format: cell-based; conditions: Homo sapiens, SU-DHL10; SUDHL10 cells, 72 h, CellTiter-Glo; median; read-out: IC50 Antiproli SUDHL10 [M] (median)
Procedure: as §6, §7, §8, §9, §10

HMC-1-8 = test: Antiproliferation assay HMC-1-8 (Assay 7); format: cell-based; conditions: HMC-1-8 cells, 72 h, CellTiter-Glo; single determinations; read-out: IC50 Antiproli HMC-1-8
Procedure: as §6, §7, §8, §9, §10

[8] = Homo sapiens, SU-DHL10, 3 h, Caspase-Glo 3/7, median

MCL-1, sequence (Q07820 whole entry K194A/K197A/R201A, looked up): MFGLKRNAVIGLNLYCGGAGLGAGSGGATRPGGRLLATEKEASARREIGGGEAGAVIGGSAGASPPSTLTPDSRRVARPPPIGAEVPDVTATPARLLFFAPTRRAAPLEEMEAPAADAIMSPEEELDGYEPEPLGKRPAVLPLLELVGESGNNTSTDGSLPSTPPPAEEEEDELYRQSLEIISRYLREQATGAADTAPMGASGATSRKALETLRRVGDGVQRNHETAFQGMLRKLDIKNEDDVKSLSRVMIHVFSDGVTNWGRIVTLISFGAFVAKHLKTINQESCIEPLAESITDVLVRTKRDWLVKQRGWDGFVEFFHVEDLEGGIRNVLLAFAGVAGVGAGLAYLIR

Structure (SMILES) | IC50 (MCL-1) [nM] | EC50 (SUDHL5 [2]) [nM] | EC50 (SUDHL10 [3]; [8]) [nM] | IC50 (SUDHL5 [4]; Homo sapiens, SU-DHL-5, 72 h) [M] | IC50 (AMO-1; Homo sapiens, AMO1, 72 h) [nM] | IC50 (A2780; Homo sapiens, A2780, 72 h) [µM] | IC50 (SUDHL5 [5]; Homo sapiens, SU-DHL-5, 5 h) [M] | IC50 (SUDHL10 [6]; Homo sapiens, SU-DHL10, 5 h) [M] | IC50 (SUDHL10 [7]) [M] | IC50 (AMO-1; 72 h) | other results
CCOC(=O)c1c(CCCO)c2ccc(F)c3c2n1CCCCN(C)Cc1nn(C)c(CC)c1-3 |  |  |  |  |  |  |  |  |  |  | ring closure, yield of all isomers ([1]; from CCOC(=O)c1c(CCCO[Si](C)(C)C(C)(C)C)c2ccc(F)c(-c3c(CBr)nn(C)c3CC)c2n1CCCCN(C)C(=O)OC(C)(C)C, acetonitrile, 44.5 mM, 60.0 °C, 6.0 h, 2 steps): 46%
CCOC(=O)c1c(CCCOc2cccc3ccccc23)c2ccc(F)c3c2n1CCCCNCc1nn(C)c(C)c1-3 |  |  |  |  |  |  |  |  |  |  | ring closure, yield of all isomers ([1]; from CCOC(=O)c1c(CCCOc2cccc3ccccc23)c2ccc(F)c(-c3c(CBr)nn(C)c3C)c2n1CCCCN, DMF, 10.0 mM, 65.0 °C, 17.0 h): 48.6%
CCc1c2c(nn1C)COCCCCn1c(C(=O)O)c(CCCOc3cccc4ccccc34)c3ccc(F)c-2c31 (racemic) [Example 6, (rac)-3-ethyl-4-fluoro-2-methyl-7-[3-(naphthalen-1-yloxy)propyl]-2,10,11,12,13,15-hexahydro-pyrazolo[4′,3′:9,10][1,6]oxazacycloundecino[8,7,6-hi]indole-8-carboxylic acid] | 1.1 | 400 | 1100 | 9.8e-07 | 2630 | 14.5 | 6.4e-07 | 1.3e-06 |  |  | IC50 (MV-4-11; Homo sapiens, MV4-11, 72 h): 3830 nM; IC50 (MV-4-11; 72 h, listed as 06): 2820 nM and 2760 nM and 2350 nM; IC50 (SK-BR-3): 7.29 µM; IC50 (A2780; 72 h, listed as 06): 10.6 µM and 13.1 µM
Cc1c2c(nn1C)COCCCCn1c(C(=O)O)c(CCCOc3cccc4cc(F)ccc34)c3ccc(F)c-2c31 (racemic) [Example 12, (rac)-13-fluoro-1-(3-((6-fluoronaphthalen-1-yl)oxy)propyl)-11,12-dimethyl-4,5,6,7,9,11-hexahydropyrazolo[4′,3′:9,10][1]oxa[6]azacycloundecino[8,7,6-hi]indole-2-carboxylic acid] | 0.85 | 480 | 800 | 6.5e-07 | 1510 | 4.68 | 6e-07 | 8.2e-07 | 7.2e-07 | 869 nM | 
CCc1c2c(nn1C)COCCCCn1c(C(=O)O)c(CCCOc3cccc4cc(F)ccc34)c3ccc(F)c-2c31 (racemic) [Example 21, (rac)-12-ethyl-13-fluoro-1-(3-((6-fluoronaphthalen-1-yl)oxy)propyl)-11-methyl-4,5,6,7,9,11-hexahydropyrazolo[4′,3′:9,10][1]oxa[6]azacycloundecino[8,7,6-hi]indole-2-carboxylic acid] | 0.86 | 350 | 900 | 7.3e-07 | 1220 | 3.47 | 5.1e-07 | 8.5e-07 | 6.3e-07 | 942 nM and 1120 nM | 
CCc1nn(C)c2c1-c1c(F)ccc3c(CCCOc4cccc5cc(F)ccc45)c(C(=O)O)n(c13)CCCCOC2 (racemic) [Example 38, (rac)-12-ethyl-13-fluoro-1-(3-((6-fluoronaphthalen-1-yl)oxy)propyl)-10-methyl-4,5,6,7,9,10-hexahydropyrazolo[4′,3′:9,10][1]oxa[6]azacycloundecino[8,7,6-hi]indole-2-carboxylic acid] | 1.1 | 870 | 2000 | 9.3e-07 | 2350 |  | 1e-06 | 1.4e-06 | 1e-06 | 2460 nM and 1610 nM | 
CCc1c2c(nn1C)COCCCCn1c(C(=O)O)c(CCCOc3cccc4cc(F)ccc34)c3ccc(F)c-2c31 (single isomer, unassigned; enantiomer 2) [Example 25, 3-ethyl-4-fluoro-7-{3-[(6-fluoronaphthalen-1-yl)oxy]propyl}-2-methyl-2,10,11,12,13,15-hexahydropyrazolo[4′,3′:9,10][1,6]oxazacycloundecino[8,7,6-hi]indole-8-carboxylic acid (enantiomer 2)] | 13 |  |  |  |  |  |  |  |  | 32800 nM | EC50 (SUDHL10 [3]; 3 h, Caspase-Glo 3/7, median): > 33000 nM; IC50 (SUDHL5 [4]; 72 h): 8.1e-06 M; IC50 (HMC-1-8): 20.9 µM; IC50 (SUDHL5 [5]): 1.2e-05 M; IC50 (SUDHL10 [6]): 2.2e-05 M
